Paper PMC7609719 (2020)
Each block holds one compound with its values, some of them ahead of it.

Columns and labels:
[1] = test system: Apt1d (DNA, aptamer) TTCGGGGAGTATTGCGGAGGAA; assay: ITC; details: Na+ (100 mM NaCl), Mg2+ (2 mM MgCl2); 10 mM HEPES pH 7.6, 20 °C; 100 µM DNA
[2] = test system: Apt1d-GC1 (DNA, aptamer) TTCGGGGAGTATTGCGCAGGAA; assay: ITC; details: Na+ (100 mM NaCl), Mg2+ (2 mM MgCl2); 10 mM HEPES pH 7.6, 20 °C; 100 µM DNA
[3] = test system: Apt1d-GC2 (DNA, aptamer) TTCGGGGCGTATTGCGCAGGAA; assay: ITC; details: Na+ (100 mM NaCl), Mg2+ (2 mM MgCl2); 10 mM HEPES pH 7.6, 20 °C; 100 µM DNA
[4] = test system: ATP9 (DNA, aptamer, inosine at 22 (G22I)) ACCTGGGGGAGTATTGCGGAGGAAGGT; assay: ITC, one-site fit; details: Na+ (120 mM NaCl); 10 mM sodium acetate pH 5.5, 20 °C
[5] = test system: ATP10 (DNA, aptamer, inosine at 9 (G9I)) ACCTGGGGGAGTATTGCGGAGGAAGGT; assay: ITC, one-site fit; details: Na+ (120 mM NaCl); 10 mM sodium acetate pH 5.5, 20 °C
[6] = test system: ATP3 (DNA, aptamer) ACCTGGGGGAGTATTGCGGAGGAAGGT; assay: UV melting, 260 nm; details: Na+ (120 mM NaCl); 10 mM sodium acetate pH 5.5; 95% ligand-bound; derived from two Tm (45.2 ± 0.5, 44.2 ± 1.5)
[7] = test system: ATP7 (DNA, aptamer) ACCTGGGCGCGGGAGTATTGCGGAGCGAGGAAGGT; assay: UV melting, 260 nm; details: Na+ (120 mM NaCl); 10 mM sodium acetate pH 5.5; 95% ligand-bound; derived from two Tm (55.6 ± 0.5, 55.8 ± 0.6)
[8] = test system: ATP3 (DNA, aptamer) ACCTGGGGGAGTATTGCGGAGGAAGGT; assay: ITC, two-site cooperative fit; details: Na+ (120 mM NaCl), 10 mM sodium acetate pH 5.5, 20 °C, site 1 of 2
[9] = test system: ATP17 (DNA, aptamer) ACCTGGGCGGGGAGTATTGCGGACGAGGAAGGT; assay: ITC, two-site cooperative fit; details: Na+ (120 mM NaCl); 10 mM sodium acetate pH 5.5, 20 °C; 100 µM DNA; site 1 of 2
[10] = test system: ATP7 (DNA, aptamer) ACCTGGGCGCGGGAGTATTGCGGAGCGAGGAAGGT; assay: ITC, two independent sites fit; details: Na+ (120 mM NaCl); 10 mM sodium acetate pH 5.5, 20 °C; 100 µM DNA; site 1 of 2

- binding [1]: yes
- binding [2]: no
- binding [3]: no
- affinity [4]: 212 ± 69 µM
- affinity [5]: 188 ± 37 µM
- melting temperature change (ΔTm, bound minus free) [6]: -1.0 °C
- melting temperature change (ΔTm, bound minus free) [7]: 0.2 °C
- Kd1 ([8]; average of fits at 10-100 µM aptamer): 25 ± 15 µM
- Kd1 [9]: 44 ± 8 µM
- Kd1 [10]: 1.3 ± 0.5 µM
SMILES: Nc1ncnc2c1ncn2[C@@H]1O[C@H](CO)[C@@H](O)[C@H]1O

- Kd1 ([8]; 70 µM DNA): 86 ± 26 µM
SMILES: Nc1ncnc2c1ncn2[C@@H]1O[C@H](COP(=O)(O)O)[C@@H](O)[C@H]1O

- Kd1 ([8]; 70 µM DNA): 101 ± 33 µM
SMILES: Nc1ncnc2c1ncn2[C@@H]1O[C@H](COP(=O)(O)OP(=O)(O)O)[C@@H](O)[C@H]1O

- Kd1 ([8]; 70 µM DNA): 133 ± 55 µM
SMILES: Nc1ncnc2c1ncn2[C@@H]1O[C@H](COP(=O)(O)OP(=O)(O)OP(=O)(O)O)[C@@H](O)[C@H]1O
